Earlier results, collected in patent US11992483B2, “Emulsions for local anesthetics” (Cali Pharmaceuticals, LLC, priority 2021, dated 2024).
Where a name gives a salt, the structure may show the parent alone. Read-outs that look alike come from different tables or passages of the source.

Conditions: for log P: octanol/water

| log P (hydrochloride) | P (octanol:water partition coefficient) (hydrochloride) | solubility in water | log P | P (octanol:water partition coefficient) | Compound |
| --- | --- | --- | --- | --- | --- |
| 1.1 | 14 | – | – | – | CCCN1CCCC[C@H]1C(=O)Nc1c(C)cccc1C [ropivacaine hydrochloride] |
| – | – | insoluble in water | 2.9 | 794 | CCCN1CCCC[C@H]1C(=O)Nc1c(C)cccc1C [ropivacaine free base, ropivacaine] |
